The numbers were not newly measured in patent US20030045478A1, “Gamma-ketoacid dipeptide derivatives as inhibitors of caspase-3” (priority 2000, published 2003), which cites them from elsewhere.

A value given as a limit tells only on which side of the number the result lay.

As a reminder, the Ki is a measure of affinity in units of concentration, obtained from inhibition or displacement.

The target of one data set is T1, caspase-1 (Homo sapiens, UniProt P29466).
T1 sequence (P29466 120-297 limits assumed): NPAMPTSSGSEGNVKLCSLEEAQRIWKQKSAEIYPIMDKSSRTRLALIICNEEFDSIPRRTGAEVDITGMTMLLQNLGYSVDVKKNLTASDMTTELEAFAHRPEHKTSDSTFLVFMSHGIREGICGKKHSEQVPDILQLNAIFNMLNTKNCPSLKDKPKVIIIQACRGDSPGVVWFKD
T1 sequence (P29466 317-404 limits assumed): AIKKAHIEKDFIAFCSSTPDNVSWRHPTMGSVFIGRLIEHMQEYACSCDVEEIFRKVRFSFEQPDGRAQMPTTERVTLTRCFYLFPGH

Another data set deals with T2, caspase-3 (Homo sapiens, UniProt P42574).
T2 sequence (P42574 29-175 limits assumed): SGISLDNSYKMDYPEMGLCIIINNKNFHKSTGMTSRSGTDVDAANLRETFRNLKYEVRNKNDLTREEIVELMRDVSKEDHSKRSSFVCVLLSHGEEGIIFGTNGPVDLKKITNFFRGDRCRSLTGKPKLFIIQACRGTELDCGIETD
T2 sequence (P42574 176-277 limits assumed): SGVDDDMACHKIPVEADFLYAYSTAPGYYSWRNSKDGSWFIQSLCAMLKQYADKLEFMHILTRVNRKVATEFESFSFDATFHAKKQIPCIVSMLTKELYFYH

With Ac-YVAD-CHO, the Ki was less than 0.001 µM on caspase-1 and 12 µM on caspase-3.
